Target: T1, breast cancer resistance protein (BCRP) (Homo sapiens, UniProt Q9UNQ0)
T1 construct: host or cells: MDCK II (Madin-Darby canine kidney) cells overexpressing BCRP
T1 sequence (Q9UNQ0 1-655): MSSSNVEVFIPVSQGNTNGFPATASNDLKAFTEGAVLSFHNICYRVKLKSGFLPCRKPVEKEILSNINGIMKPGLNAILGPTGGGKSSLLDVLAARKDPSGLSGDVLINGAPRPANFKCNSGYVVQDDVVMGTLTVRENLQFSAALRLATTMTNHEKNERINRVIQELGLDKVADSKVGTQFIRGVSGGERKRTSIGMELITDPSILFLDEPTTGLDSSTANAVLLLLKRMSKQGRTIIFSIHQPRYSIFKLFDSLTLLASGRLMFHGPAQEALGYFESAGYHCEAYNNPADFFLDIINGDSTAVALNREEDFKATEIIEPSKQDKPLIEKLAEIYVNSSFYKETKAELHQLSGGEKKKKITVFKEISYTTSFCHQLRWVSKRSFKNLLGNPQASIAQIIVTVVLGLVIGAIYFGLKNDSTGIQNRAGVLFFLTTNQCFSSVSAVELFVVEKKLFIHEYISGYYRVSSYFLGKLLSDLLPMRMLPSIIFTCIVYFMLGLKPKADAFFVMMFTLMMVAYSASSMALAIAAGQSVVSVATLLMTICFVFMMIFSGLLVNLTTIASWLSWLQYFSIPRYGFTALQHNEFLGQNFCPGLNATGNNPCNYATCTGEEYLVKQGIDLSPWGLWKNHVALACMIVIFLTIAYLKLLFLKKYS
Experiment: Bidirectional transport assay across MDCK II-BCRP cell monolayer
Type: in vitro ADME
Details: for Net flux ratio: ER of MDCK II‐BCRP divided by ER of parent MDCK II, >2 = transporter-mediated efflux; for substrate of BCRP (in words): bidirectional transport assay, net flux ratio criterion
Method: The Madin‐Darby canine kidney (MDCK II) cell line and MDCK II cells overexpressing multidrug resistance 1 (MDR1) or breast cancer resistance protein (BCRP) were purchased from the Netherlands Cancer Institute (Amsterdam, Netherlands) and SOLVO Biotechnology (Szeged, Hungary), respectively. The cell lines were routinely cultured in Dulbecco's modified Eagle's medium (DMEM) containing 10% fetal bovine serum and 1% penicillin/streptomycin at 37°C in 5% CO2. All cells were seeded in a feeder tray at a density of 3–6 × 10^4 cells/well and grown for 3–4 days. On the day of the transport study, cell monolayers were washed with Hanks' balanced salt solution (HBSS) buffer containing 0.1% BSA (pH 7.4) and incubated at 37°C for 20 min. Artepillin C and drupanin dissolved in DMSO (10 mM) were added to the transport buffer (HBSS containing 10 mM HEPES, 0.2% glucose, 0.1% BSA, pH 7.4) to a final concentration of 10 μM and then loaded into the apical or basolateral chamber. After 120 min of incubation, 150 μL of the aliquots were collected from the donor and receiver chambers and mixed with an equal volume of 50% methanol. After centrifugation at 3000 rpm for 10 min at 4°C, the supernatants were filtered and subjected to LC–MS/MS analysis.
The in vitro samples were analyzed using HPLC (LC‐20A, Shimadzu, Kyoto, Japan) with a reversed‐phase column (Inertsil ODS‐3, 2.1 × 33 mm, ID. 3 μm, GL Sciences, Tokyo, Japan) held at 40°C. The mobile solvents used were water with 10 mM ammonium acetate (pH 4.0, A) and methanol (B) pumped at a flow rate of 0.4 mL/min. The following gradient was employed: 10%–90% B (0–0.5 min), 90% B (0.5–2.5 min), and 10% B (2.5–4 min). The eluent was monitored using a triple quadrupole mass spectrometer (API 4000, AB Sciex, Framingham, MA, USA) incorporating an electrospray ion source (ESI) operating in the multiple reaction monitoring mode. The ESI source was operated in negative ionization mode at 600°C with a spray voltage of −4.5 kV. The curtain gas (nitrogen), collision gas (nitrogen), nebulizer gas (whole air), and drying gas (whole air) were set at 40, 5, 50, and 70 psi, respectively. […] Artepillin C and drupanin were diluted in 50% methanol to concentrations of 1.6, 3.2, 8, 40, 200, 1000, and 2000 nM and were used as external standards. Sulfaphenazole (0.2 μM) was used as an internal standard.
The apparent permeability coefficients (Papp) for both directions, from the apical side to the basolateral side (A to B) and from the basolateral side to the apical side (B to A) in the cell monolayer, were calculated using the following equation: (1) Papp=dQ/dt/A×C0 where dQ/dt is the permeation rate (nmol/s), A is the membrane area (cm^2), and C0 is the initial concentration of the compound in the donor compartment (nM). The efflux ratios (ER) in the B‐to‐A and A‐to‐B directions were determined using the following equation: (2) ER=PappBtoA/PappAtoB
Net flux ratios were calculated by dividing the ER obtained from MDCK II‐MDR1 (or BCRP) cells by that obtained from the parent MDCK II cells.

[1] = 10 μM, 120 min, mean ± SE, n = 2

| Compound | Net flux ratio | substrate of BCRP (in words) | Papp MDCK II‐BCRP A to B [1] | Papp MDCK II‐BCRP B to A [1] | Flux ratio (MDCK II‐BCRP) (efflux ratio, ER) (10 μM, Papp B to A / Papp A to B) |
| --- | --- | --- | --- | --- | --- |
| CC(C)=CCc1cc(/C=C/C(=O)O)ccc1O [drupanin] | 20.4 | substrates | – | – | – |
| CC(C)=CCc1cc(/C=C/C(=O)O)cc(CC=C(C)C)c1O [artepillin C] | 2.0 | substrates | 9.7 ± 0.2 10^−6 cm/s | 16.0 ± 0.01 10^−6 cm/s | 1.6 |
